According to US10544134B2, “4-substituted coumarin derivatives and preparation methods and uses thereof” (SI CHUAN UNIVERSITY, priority 2015, dated 2020):
Where two headings read alike, the source gives them in different places. Marks after values point to notes of the source that are not given here.

Columns and labels:
tumor = conditions: cited from earlier work
[1] = system: taxol-resistant ovarian cancer cell A2780/Taxol; test: Pharmacodynamics in tumor-bearing nude mice, A2780/Taxol model; assay type: in vivo, mouse
Source text: (§1) Test condition: animal house of SPF level, use permit No. of experiment animals: SYXK (J) 2015-0023
(§2) Weigh the mouse and measure length and width of tumor using a vernier caliper in every two days, perform cervical dislocation for the nude mice after 20 days of drug administration, remove the tumor tissues, weigh and take a picture. Calculate tumor inhibition rate (%) eventually to evaluate anti-tumor effects.

[2] = system: drug-resistant ovarian cancer cell A2780/T; test: Tumor cell proliferation inhibitory activity test in vitro (MTT); assay type: cell-based; conditions: Homo sapiens, drug-resistant cells, 72 hours
How it was run: (§3)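 Cells seeded at 1000-10000 per well overnight, then exposed to test concentrations for 72 hours at 37° C, 5% CO2 in DMEM+10% FBS.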

[3] = system: ovarian cancer cell A2780s; test: as above; assay type: cell-based; conditions: Homo sapiens, sensitive cells, 72 hours
How it was run: as §3

[4] = system: colon carcinoma cell HCT-8; test: as above; assay type: cell-based; conditions: Homo sapiens, sensitive cells, 72 hours
How it was run: as §3

[5] = system: doxorubicin-resistant breast cancer cell MCF-7/ADR; test: as above; assay type: cell-based; conditions: Homo sapiens, NCI/ADR-RES, drug-resistant cells, 72 hours
How it was run: as §3

breast cancer cell MCF-7 = test: as above; assay type: cell-based; conditions: Homo sapiens
How it was run: as §3

[6] = system: human ovarian cancer cell A2780S; test: Pharmacodynamics in tumor-bearing nude mice, A2780S model; assay type: in vivo, mouse
Source text: as §1, §2

HCT-8/V = test: Tumor cell proliferation inhibitory activity test in vitro (MTT); assay type: cell-based; conditions: Homo sapiens, drug-resistant cells, 72 hours
[7] = system: microtubule in hepatocellular carcinoma cell HepG2; test: Depolymerization on microtubule by immunofluorescence technique; assay type: cell-based, human; conditions: HepG2, 16 h, three concentrations
Source text: Place round coverslips into 6-well plate, plate hepatocellular carcinoma cell HepG2 in the 6-well plate and make the cells adhere to the round coverslips.

[8] = system: human umbilical vein endothelial cells (HUVECs); test: Angiogenesis test on HUVECs; assay type: cell-based; conditions: Matrigel, 8 h treatment
Method: (§4) Obtain neonate umbilical cords from clinical sources after being approved by relevant authorities, put them into sterile PBS solution, provide ice bags at the external to keep them under low temperature, and return to the clean bench to operate. Insert a blunt needle into the human umbilical vein and wash with sterile PBS solution for multiple times until cleaning up the tainted blood. Clamp the lower end of the cord with surgical clamps, add collagenase with 1 mg/mL concentration (purchased from Roche) for digestion for 15 to 20 minutes at room temperature and shake the cord up and down at intervals. After digestion, open the surgical clamp at the lower end, let the digestive solution flow into a 50 mL centrifuge tube and wash the cord for 2-3 times with sterile PBS solution. Centrifuge the collected solution for 3 minutes at 1500 rpm. Discard the supernatant, resuspend cells with EBM-2 medium (purchased from lonza) containing various growth factors and incubate them in an incubator at constant temperature of 37° C. with 5% CO2 concentration.
Place Matrigel (purchased from Becton Dickinson (BD)) at 4° C. and make it in liquid state; precool the pipette tip, 96-well plate and EP tube to be used in the test.
Add Matrigel into the 96-well plate at 50 μL/well and incubate it in an incubator at 37° C. with CO2 concentration for 45 min to make it solidify. […]

plural tumor cells = conditions: cited from earlier work
[9] = system: colon carcinoma cell HCT116; test: Tumor cell proliferation inhibitory activity test in vitro (MTT); assay type: cell-based, human; conditions: Homo sapiens, HCT-116, 72 hours, read-out: IC50 of compounds for tumor cells, Activity, HCT116
How it was run: as §3

[10] = system: non-small cell lung cancer cell line NCI-H460; test: as above; assay type: cell-based, human; conditions: Homo sapiens, NCI-H460, 72 hours, read-out: IC50 of compounds for tumor cells, Activity, H460
How it was run: as §3

prostate cancer PC-3 = test: as above; assay type: cell-based, human; conditions: Homo sapiens, 72 hours, read-out: IC50 of compounds for tumor cells, Activity, PC-3
How it was run: as §3

[11] = system: hepatocellular carcinoma cell HEPG2; test: as above; assay type: cell-based, human; conditions: Homo sapiens, HepG2, 72 hours, read-out: IC50 of compounds for tumor cells, Activity, HEPG2
How it was run: as §3

melanoma A375 = test: as above; assay type: cell-based, human; conditions: Homo sapiens, A-375, 72 hours, read-out: IC50 of compounds for tumor cells, Activity, A375
How it was run: as §3

[12] = system: mouse colon carcinoma C26; test: Pharmacodynamics in tumor-bearing mice, colon carcinoma C26 model
Method: Collect tumor cells under aseptic conditions, adjust cell density to 5×10^7 cells/mL with sterilized physiological saline, subcutaneously inoculate 0.2 mL into armpit and back of nude mice, remove the tumor when it grew to 1 cm diameter under aseptic conditions, slice it into 1 mm×1 mm tumor blocks and evenly and subcutaneously inoculate it into armpit and back of nude mice for subculture. Remove the tumor under aseptic conditions after 2 subcultures and when it grew to 1 cm diameter, slice it into 1 mm×1 mm tumor blocks and evenly and subcutaneously inoculate it into armpit and back of nude mice. Conduct random grouping of animals after 7 days when the tumor grew to 100-300 mm^3 and perform tail intravenous injection (i.v.) once per two days, with dosages and administration methods shown in Table 3 and Table 4.
(1) Tumor volume (TV), relative tumor volume (RTV) and relative tumor proliferation rate: measure long diameter and short diameter of tumor in every two days using a vernier caliper or ruler with 1/50 mm precision and dynamically observe anti-tumor effects of tested drugs.
Formula for calculating tumor volume (TV) is: TV (mm3)=a×b^2×π/6; wherein a and b stand for long diameter and short diameter respectively.
Calculate relative tumor volume (RTV) based on the measured results with formula: RTV=Vt/V0, wherein V0 stands for the measured TV of each group at the time of being grouped for administration (i.e. d0) and Vt stands for the TV value of each group for every measurement.
The indicator used to evaluate anti-tumor activity is the relative tumor proliferation rate T/C (%), with the calculating formula as following:
TRTV: relative tumor volume of treated group; CRTV: relative tumor volume of negative control group.
Kill the animal at the end of treatment, dissect and remove the tumor, weigh the tumor and take a picture. The tumor inhibition rate (%) is calculated as the following formula:

[13] = system: human umbilical vein endothelial cells (HUVECs); test: Wound healing test on HUVECs; assay type: cell-based; conditions: 24 h of cells migration
Method: as §4
Collect HUVECs between the 3rd to 7th subculture generations and plate them in the 6-well plate. When the cells were about to form a confluent monolayer of cells, change the medium into a serum-free medium to starve the cells for 6 h. […]

[14] = A2780/T model, 30 mg/kg intraperitoneal once/seven days
[15] = MCF7, sensitive cells, 72 hours, read-out: IC50/nM MCF-7
[16] = A2780s model, 30 mg/kg intraperitoneal once/seven days
[17] = subcutaneously transplanted mouse colon carcinoma C26, 5 mg/kg i.v. once/two days

In the case of `COc1ccc2c(-c3ccc(OC)c(O)c3)cc(=O)oc2c1` [compound C], the “IC50 value, anti-tumor activity” value (tumor) is given as “dozens of nanomolar”.

In the case of `CC(=O)O[C@H]1C(=O)[C@@]2(C)[C@H]([C@H](OC(=O)c3ccccc3)[C@]3(O)C[C@H](OC(=O)[C@H](O)[C@@H](NC(=O)c4ccccc4)c4ccccc4)C(C)=C1C3(C)C)[C@]1(OC(C)=O)CO[C@@H]1C[C@@H]2O` [Taxol], the Death rate [1, 14] is reported as 0/6, the “T/C (%)” value [1, 14] is reported as 75.4% and the “Tumor volume (mm^3) Final” value [1, 14] is reported as 936.4 ± 347.9^ mm^3. For the same molecule, the “Tumor volume (mm^3) Initial” value [1, 14] was 155.6 ± 20.6 mm^3, the “Tumor weight (g) X ± SD” value [1, 14] was 0.79 ± 0.41 ^ g and the “Tumor weight Inhibition rate %” value [1, 14] was 37.7%. For the same molecule, the “Mouse weight (g) Final” value ([1]; mouse, in vivo, ip, 30 mg/kg) was 19.4 ± 1.0 g, the “Mouse weight (g) Initial” value ([1]; mouse, in vivo, ip, 30 mg/kg) was 20.3 ± 0.8 g and the IC50 [2] was 8120 ± 185 nM. The IC50 [3] was 58.1 ± 24.1 nM, the IC50 [4] was 37 ± 23.9 nM and the IC50 ([5]; cells marked (μM), read-out: IC50 MCF-7/ADR) was 9.15 µM. For the same molecule, the IC50 (breast cancer cell MCF-7; [15]) was 32.3 ± 19.5 nM, the Death rate [6, 16] was 0/6 and the “Mouse weight (g) Final” value [6, 16] was 18.2 ± 0.4 g. For the same molecule, the “Mouse weight (g) Initial” value [6, 16] was 21.0 ± 0.7 g, the “T/C (%)” value [6, 16] was 13.1% and the “Tumor volume (mm^3) Final” value [6, 16] was 184.8 ± 26.6 ^c mm^3. The “Tumor volume (mm^3) Initial” value [6, 16] was 138.1 ± 25.6 mm^3, the “Tumor weight (g) X ± SD” value [6, 16] was 0.28 ± 0.07 ^c g and the “Tumor weight Inhibition rate %” value [6, 16] was 82.9%. The “Weight drop in average” value ([6]; mouse, in vivo) was “about 2 g” and the IC50 (HCT-8/V; cells marked (μM), read-out: IC50 HCT-8/V) was 0.189 ± 0.052 µM.

In the case of `COc1ccc(N(C)c2nc(C)nc3ccccc23)cc1` [MPC-6827], the IC50 [2] is reported as 4.11 ± 0.062 nM, the IC50 [3] is reported as 3.16 ± 0.034 nM and the IC50 [4] is reported as 3.12 ± 0.066 nM. The IC50 ([5]; read-out: IC50/nM MCF-7/ADR) was 0.000699 ± 5.3e-05 µM, the IC50 (breast cancer cell MCF-7; MCF7, 72 hours, read-out: IC50 of compounds for tumor cells, Activity, MCF-7) was 0.01 to 10 nM and the IC50 (breast cancer cell MCF-7; [15]) was 0.581 ± 0.004 nM. For the same molecule, the “Inhibition of polymerization of microtubule (immunofluorescence observation)” value [7] was “fails to form orderly filamentous structures due to inhibited polymerization”, the “Inhibition of angiogenesis of HUVECs” value [8] was “inhibit angiogenesis of HUVECs in a dose-dependent manner” and the IC50 (plural tumor cells) was 1 to 10 nM. For the same molecule, the IC50 [9] was 0.01 to 10 nM, the IC50 [10] was 0.01 to 10 nM and the IC50 (prostate cancer PC-3) was 0.01 to 10 nM. For the same molecule, the IC50 [11] was 0.01 to 10 nM, the IC50 (melanoma A375) was 0.01 to 10 nM and the “Mouse weight during the treatment” value ([12]; colon carcinoma C26 model, 5 mg/kg i.v. once/two days) was “significant drops in weight and even died”. The “Average tumor weight” value [12, 17] was 0.525 g, the “Tumor inhibition rate (%)” value [12, 17] was 78.66% and the IC50 (HCT-8/V; read-out: IC50/nM HCT-8/V) was 0.00375 ± 0.000131 µM. The “Inhibition of migration of HUVECs” value [13] was “inhibit migration of HUVECs in a dose-dependent manner”.
